Results as given in ChEMBL document CHEMBL5723587, “Data for DCP probe BI-113823” (2024).

Key:
Conditions in all cases: Compound concentration 10.0 uM
[1] = target: Alpha-1D adrenergic receptor (Homo sapiens) (UniProt P25100); test: Activity against ALPHA1D/H in the Eurofins SafetyScreen44 (BI) by Others
[2] = target: Type-1 angiotensin II receptor (Homo sapiens) (UniProt P30556); test: Activity against AT1/HU in the Eurofins SafetyScreen44 (BI) by Radioligand Binding
[3] = target: D(2) dopamine receptor (Homo sapiens) (UniProt P14416); test: Activity against D2S/HU in the Eurofins SafetyScreen44 (BI) by Radioligand Binding
[4] = target: Epidermal growth factor receptor (Homo sapiens) (UniProt P00533); test: Activity against EGF/HU in the Eurofins SafetyScreen44 (BI) by Radioactive Assay
[5] = target: Interleukin-1 receptor type 1 (Mus musculus) (UniProt P13504); test: Activity against IL-1ALPHA/M in the Eurofins SafetyScreen44 (BI) by Others
[6] = target: Melatonin receptor type 1A (Homo sapiens) (UniProt P48039); test: Activity against MT1/H in the Eurofins SafetyScreen44 (BI) by Radioactive Assay
[7] = target: Glutamate NMDA receptor (Rattus norvegicus) (UniProt P35439+Q00959+Q00960+Q00961+Q62645+Q8VHN2+Q9R1M7); test: Agonist activity in the Eurofins SafetyScreen44 (BI) against NMDAAGSI/RA by Radioactive Assay; assay type: protein-complex assay
[8] = target: Glutamate receptor ionotropic, NMDA 1 (Rattus norvegicus) (UniProt P35439); test: Inhibitor of NMDAGLSI/RA in the Eurofins SafetyScreen44 (BI) by Scintillation counting

Measured: residual activity

Sequence of Epidermal growth factor receptor (Homo sapiens) (P00533 whole entry): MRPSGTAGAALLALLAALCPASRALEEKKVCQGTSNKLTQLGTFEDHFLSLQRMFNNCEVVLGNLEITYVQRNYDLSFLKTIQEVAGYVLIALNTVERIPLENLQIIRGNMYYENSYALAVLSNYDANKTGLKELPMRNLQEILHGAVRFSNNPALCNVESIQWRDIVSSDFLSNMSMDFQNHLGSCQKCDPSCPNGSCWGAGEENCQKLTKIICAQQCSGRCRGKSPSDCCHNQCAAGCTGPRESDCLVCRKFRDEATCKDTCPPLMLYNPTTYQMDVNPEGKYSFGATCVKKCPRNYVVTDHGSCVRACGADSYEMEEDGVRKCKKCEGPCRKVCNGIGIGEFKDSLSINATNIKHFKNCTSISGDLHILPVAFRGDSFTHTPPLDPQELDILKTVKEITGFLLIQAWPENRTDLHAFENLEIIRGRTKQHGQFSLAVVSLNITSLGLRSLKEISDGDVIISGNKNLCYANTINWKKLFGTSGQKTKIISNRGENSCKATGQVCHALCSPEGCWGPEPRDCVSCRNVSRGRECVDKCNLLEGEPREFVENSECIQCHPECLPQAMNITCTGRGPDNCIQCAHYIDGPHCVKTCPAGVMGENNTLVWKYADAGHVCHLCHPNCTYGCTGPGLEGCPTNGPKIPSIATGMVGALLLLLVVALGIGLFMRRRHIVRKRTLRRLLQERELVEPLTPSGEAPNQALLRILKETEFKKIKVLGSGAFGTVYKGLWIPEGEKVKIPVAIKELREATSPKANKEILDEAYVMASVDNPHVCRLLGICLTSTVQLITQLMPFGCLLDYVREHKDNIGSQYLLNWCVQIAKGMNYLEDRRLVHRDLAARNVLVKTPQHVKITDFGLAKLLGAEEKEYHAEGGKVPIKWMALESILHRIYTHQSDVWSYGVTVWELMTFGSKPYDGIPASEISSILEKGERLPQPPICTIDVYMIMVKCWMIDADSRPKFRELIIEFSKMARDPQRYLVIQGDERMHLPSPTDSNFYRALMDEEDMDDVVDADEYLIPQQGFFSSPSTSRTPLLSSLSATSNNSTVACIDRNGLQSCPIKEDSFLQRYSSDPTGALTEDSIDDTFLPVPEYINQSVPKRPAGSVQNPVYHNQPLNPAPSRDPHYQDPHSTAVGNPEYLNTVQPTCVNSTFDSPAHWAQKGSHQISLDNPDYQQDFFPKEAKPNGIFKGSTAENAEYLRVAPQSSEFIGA
Sequence of Interleukin-1 receptor type 1 (Mus musculus) (P13504 whole entry): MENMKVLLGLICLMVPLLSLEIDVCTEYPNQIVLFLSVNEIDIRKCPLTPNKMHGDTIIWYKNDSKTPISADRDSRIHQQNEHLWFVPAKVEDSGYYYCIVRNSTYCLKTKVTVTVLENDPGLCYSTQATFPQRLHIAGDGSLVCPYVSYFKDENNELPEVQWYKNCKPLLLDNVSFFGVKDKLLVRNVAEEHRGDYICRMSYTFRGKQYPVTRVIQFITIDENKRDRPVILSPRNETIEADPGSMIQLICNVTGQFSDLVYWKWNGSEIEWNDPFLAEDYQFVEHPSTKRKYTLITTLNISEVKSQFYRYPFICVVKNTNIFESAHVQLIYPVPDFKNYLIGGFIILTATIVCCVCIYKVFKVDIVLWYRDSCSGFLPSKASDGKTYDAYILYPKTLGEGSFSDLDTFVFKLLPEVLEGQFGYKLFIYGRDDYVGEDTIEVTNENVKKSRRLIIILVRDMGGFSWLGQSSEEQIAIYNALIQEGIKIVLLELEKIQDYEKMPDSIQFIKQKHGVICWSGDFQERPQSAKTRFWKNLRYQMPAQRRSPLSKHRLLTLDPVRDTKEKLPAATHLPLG
Sequence of Alpha-1D adrenergic receptor (Homo sapiens) (P25100 whole entry): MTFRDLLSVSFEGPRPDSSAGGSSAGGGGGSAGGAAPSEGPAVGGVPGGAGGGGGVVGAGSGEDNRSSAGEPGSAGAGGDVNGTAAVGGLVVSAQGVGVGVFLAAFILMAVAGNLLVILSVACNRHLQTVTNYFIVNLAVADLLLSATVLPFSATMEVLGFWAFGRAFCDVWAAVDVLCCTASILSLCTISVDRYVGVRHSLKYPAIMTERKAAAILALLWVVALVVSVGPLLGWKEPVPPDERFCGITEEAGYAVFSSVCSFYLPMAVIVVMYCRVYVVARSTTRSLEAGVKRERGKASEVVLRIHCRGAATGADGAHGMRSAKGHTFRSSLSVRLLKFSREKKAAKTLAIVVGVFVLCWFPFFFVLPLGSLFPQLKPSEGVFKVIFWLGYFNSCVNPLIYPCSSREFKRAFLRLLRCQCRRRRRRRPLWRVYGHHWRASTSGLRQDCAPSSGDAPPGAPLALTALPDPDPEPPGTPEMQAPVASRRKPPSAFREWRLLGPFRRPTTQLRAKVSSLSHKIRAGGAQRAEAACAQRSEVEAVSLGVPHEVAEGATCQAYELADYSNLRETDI
Sequence of Type-1 angiotensin II receptor (Homo sapiens) (P30556 whole entry): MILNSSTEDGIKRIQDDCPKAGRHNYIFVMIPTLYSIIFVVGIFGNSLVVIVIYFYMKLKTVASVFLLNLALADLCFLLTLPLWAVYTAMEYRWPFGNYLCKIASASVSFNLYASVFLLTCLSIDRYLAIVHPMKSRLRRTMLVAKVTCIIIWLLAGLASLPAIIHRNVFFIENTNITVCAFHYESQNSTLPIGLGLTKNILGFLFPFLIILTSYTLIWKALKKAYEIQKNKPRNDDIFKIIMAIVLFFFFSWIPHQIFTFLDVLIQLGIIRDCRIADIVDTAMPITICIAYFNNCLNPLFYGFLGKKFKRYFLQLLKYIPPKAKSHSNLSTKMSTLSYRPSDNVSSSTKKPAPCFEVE
Sequence of Melatonin receptor type 1A (Homo sapiens) (P48039 whole entry): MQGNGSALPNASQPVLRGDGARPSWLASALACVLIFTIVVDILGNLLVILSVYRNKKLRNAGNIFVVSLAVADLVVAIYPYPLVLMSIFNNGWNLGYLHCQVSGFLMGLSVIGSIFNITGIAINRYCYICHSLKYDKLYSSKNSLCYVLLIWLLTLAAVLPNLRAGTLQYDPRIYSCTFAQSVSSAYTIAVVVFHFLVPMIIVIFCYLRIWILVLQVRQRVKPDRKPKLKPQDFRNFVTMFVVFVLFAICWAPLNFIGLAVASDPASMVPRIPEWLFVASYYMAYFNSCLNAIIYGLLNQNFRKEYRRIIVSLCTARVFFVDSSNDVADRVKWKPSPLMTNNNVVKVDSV
Sequence of D(2) dopamine receptor (Homo sapiens) (P14416 whole entry): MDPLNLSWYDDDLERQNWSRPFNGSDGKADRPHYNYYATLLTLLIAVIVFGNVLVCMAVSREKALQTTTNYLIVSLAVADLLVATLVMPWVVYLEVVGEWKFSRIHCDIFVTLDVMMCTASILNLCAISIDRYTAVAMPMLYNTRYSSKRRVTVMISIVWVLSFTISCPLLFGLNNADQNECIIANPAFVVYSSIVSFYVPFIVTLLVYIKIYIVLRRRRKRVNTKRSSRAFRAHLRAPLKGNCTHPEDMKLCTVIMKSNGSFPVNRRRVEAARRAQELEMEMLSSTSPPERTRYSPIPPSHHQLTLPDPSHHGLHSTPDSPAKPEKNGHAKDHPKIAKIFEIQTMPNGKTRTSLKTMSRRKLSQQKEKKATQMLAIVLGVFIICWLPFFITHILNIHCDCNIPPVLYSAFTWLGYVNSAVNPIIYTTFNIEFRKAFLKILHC

COc1cc(C)c(S(=O)(=O)N(C)CCOCC(=O)N(C)[C@H]2CCC[C@@H](N3CCN(C)CC3)C2)c(C)c1
inactive: [1] 96% | [2] 115% | [3] 105% | [4] 125% | [5] 79% | [6] 97% | [7] 92% | [8] 93%
